For 28 compounds, Hepatotoxicity results are on record in ChEMBL document CHEMBL1697731, “Cheminformatics analysis of assertions mined from literature that describe drug-induced liver injury in different species” (Chem Res Toxicol, 2010).

Series [1] deals with Hepatotoxicity. In words: Literature-mined compound from Fourches et al multi-species drug-induced liver injury (DILI) dataset, effect in rodents. As to conditions: rodentia.
For series [2], the system named is Hepatotoxicity. Briefly: Literature-mined compound from Fourches et al multi-species drug-induced liver injury (DILI) dataset, effect in non-rodents.
Series [3] has as its system Hepatotoxicity. Briefly: Literature-mined compound from Fourches et al multi-species drug-induced liver injury (DILI) dataset, effect in humans. Particulars: human.

Turning to `CCCCCc1cc(O)c2c(c1)OC(C)(C)[C@@H]1CCC(C)=C[C@@H]21` [DRONABINOL], the Hepatotoxicity result is on record as “drug-induced liver injury reported” in the series on Hepatotoxicity [1], “no drug-induced liver injury reported” in the series on Hepatotoxicity [2] and “drug-induced liver injury reported” with Hepatotoxicity [3].
For `CNCC[C@H](Oc1cccc2ccccc12)c1cccs1` [DULOXETINE], the Hepatotoxicity result was “no drug-induced liver injury reported” in the series with Hepatotoxicity [1] (Liver), “no drug-induced liver injury reported” in the series on Hepatotoxicity [2] (Liver) and “drug-induced liver injury reported” with Hepatotoxicity [3] (Liver).
For the compound `CC(=O)[C@H]1CC[C@H]2[C@@H]3C=CC4=CC(=O)CC[C@@]4(C)[C@@H]3CC[C@]12C` [DYDROGESTERONE], the Hepatotoxicity entry with Hepatotoxicity [1] is recorded as “drug-induced liver injury reported”; in the series with Hepatotoxicity [2], “no drug-induced liver injury reported”; in the series with Hepatotoxicity [3], “drug-induced liver injury reported”.
Take `Clc1ccc(COC(Cn2ccnc2)c2ccc(Cl)cc2Cl)cc1` (centres undefined) [ECONAZOLE]: the results for the Hepatotoxicity result in the series on Hepatotoxicity [1], with Hepatotoxicity [2] and with Hepatotoxicity [3] were “drug-induced liver injury reported”, “no drug-induced liver injury reported” and “no drug-induced liver injury reported”, respectively.
Consider `O=C1Nc2ccc(Cl)cc2[C@@](C#CC2CC2)(C(F)(F)F)O1` [EFAVIRENZ], for which the values for the Hepatotoxicity entry with Hepatotoxicity [1], in the series on Hepatotoxicity [2] and in the series with Hepatotoxicity [3] were “drug-induced liver injury reported”, “no drug-induced liver injury reported” and “drug-induced liver injury reported”, respectively.
Regarding `NCCCC(N)(C(=O)O)C(F)F` (centres undefined) [EFLORNITHINE], the values for the Hepatotoxicity result with Hepatotoxicity [1], with Hepatotoxicity [2] and in the series with Hepatotoxicity [3] were “drug-induced liver injury reported”, “no drug-induced liver injury reported” and “no drug-induced liver injury reported”, respectively.
Consider `CCCCCCCCCCCCS[C@H](C(=O)Nc1cc(C)c(O)c(C)c1C)c1ccccc1` [EFLUCIMIBE], for which the Hepatotoxicity result with Hepatotoxicity [1] was “no drug-induced liver injury reported”; in the series on Hepatotoxicity [2] it was “drug-induced liver injury reported”; with Hepatotoxicity [3] it was “no drug-induced liver injury reported”.
In the case of `C[C@H](N[C@@H](CCc1ccccc1)C(=O)O)C(=O)N1CCC[C@H]1C(=O)O` [ENALAPRILAT ANHYDROUS], the results for the Hepatotoxicity entry in the series on Hepatotoxicity [1], in the series on Hepatotoxicity [2] and in the series on Hepatotoxicity [3] were “no drug-induced liver injury reported”, “no drug-induced liver injury reported” and “drug-induced liver injury reported”, respectively.
For the compound `COc1ccc(C(=O)Nc2ccccc2CCC2CCCCN2C)cc1` (centres undefined) [ENCAINIDE], the Hepatotoxicity result was “no drug-induced liver injury reported” in the series with Hepatotoxicity [1], “no drug-induced liver injury reported” with Hepatotoxicity [2] and “drug-induced liver injury reported” with Hepatotoxicity [3].
Turning to `CCn1cc(C(=O)O)c(=O)c2cc(F)c(N3CCNCC3)nc21` [ENOXACIN], the Hepatotoxicity entry in the series with Hepatotoxicity [1] is on record as “drug-induced liver injury reported”; in the series with Hepatotoxicity [2] it was “no drug-induced liver injury reported”; with Hepatotoxicity [3], “drug-induced liver injury reported”.
On to `CSc1ccc(C(=O)c2[nH]c(=O)[nH]c2C)cc1` [ENOXIMONE], for which the Hepatotoxicity result in the series with Hepatotoxicity [1] is given as “drug-induced liver injury reported”; with Hepatotoxicity [2], “no drug-induced liver injury reported”; with Hepatotoxicity [3], “no drug-induced liver injury reported”.
`CC1(C)[C@@H](O)CC[C@]2(C)[C@H]3C(=O)C=C4[C@@H]5C[C@@](C)(C(=O)O)CC[C@]5(C)CC[C@@]4(C)[C@]3(C)CC[C@@H]12` [ENOXOLONE]: the results for the Hepatotoxicity result in the series with Hepatotoxicity [1], in the series on Hepatotoxicity [2] and in the series on Hepatotoxicity [3] were “drug-induced liver injury reported”, “no drug-induced liver injury reported” and “drug-induced liver injury reported”, respectively.
With `CCN(CC)C(=O)/C(C#N)=C/c1cc(O)c(O)c([N+](=O)[O-])c1` [ENTACAPONE], the Hepatotoxicity result is on record as “drug-induced liver injury reported” in the series on Hepatotoxicity [1], “no drug-induced liver injury reported” in the series on Hepatotoxicity [2] and “drug-induced liver injury reported” in the series on Hepatotoxicity [3].
As for `CN[C@@H](C)[C@H](O)c1ccccc1` [EPHEDRINE], the results for the Hepatotoxicity result in the series with Hepatotoxicity [1], in the series with Hepatotoxicity [2] and in the series on Hepatotoxicity [3] were “no drug-induced liver injury reported”, “no drug-induced liver injury reported” and “drug-induced liver injury reported”, respectively.
Regarding `CNC[C@H](O)c1ccc(O)c(O)c1` [EPINEPHRINE], the Hepatotoxicity result with Hepatotoxicity [1] (Liver), in the series on Hepatotoxicity [2] (Liver) and in the series on Hepatotoxicity [3] (Liver) was “drug-induced liver injury reported” each time.
Take `COc1cccc2c1C(=O)c1c(O)c3c(c(O)c1C2=O)C[C@@](O)(C(=O)CO)C[C@@H]3O[C@H]1C[C@H](N)[C@@H](O)[C@H](C)O1` [EPIRUBICIN]: the Hepatotoxicity result was “drug-induced liver injury reported” in the series on Hepatotoxicity [1], “no drug-induced liver injury reported” with Hepatotoxicity [2] and “no drug-induced liver injury reported” in the series on Hepatotoxicity [3].
In the case of `CCCCC[C@H](O)/C=C/[C@@H]1[C@H]2C/C(=C/CCCC(=O)[O-])O[C@H]2C[C@H]1O.[Na+]` [EPOPROSTENOL SODIUM], the Hepatotoxicity entry in the series on Hepatotoxicity [1] is reported as “drug-induced liver injury reported”; with Hepatotoxicity [2] it was “no drug-induced liver injury reported”; in the series with Hepatotoxicity [3], “no drug-induced liver injury reported”.
Turning to `O=C(O)CSCC(=O)NC1CCSC1=O` (centres undefined) [ERDOSTEINE], the Hepatotoxicity entry in the series with Hepatotoxicity [1] is listed as “drug-induced liver injury reported”; in the series on Hepatotoxicity [2] it was “no drug-induced liver injury reported”; in the series on Hepatotoxicity [3] it was “no drug-induced liver injury reported”.
As for `CN1C[C@H](C(=O)N[C@]2(C)O[C@@]3(O)[C@@H]4CCCN4C(=O)[C@H](Cc4ccccc4)N3C2=O)C=C2c3cccc4[nH]cc(c34)C[C@H]21` [ERGOTAMINE], the Hepatotoxicity entry in the series with Hepatotoxicity [1] is on record as “no drug-induced liver injury reported”; in the series with Hepatotoxicity [2] it was “drug-induced liver injury reported”; in the series with Hepatotoxicity [3], “drug-induced liver injury reported”.
As to `CCC(=O)O[C@H]1[C@H](O[C@@H]2[C@@H](C)[C@H](O[C@H]3C[C@@](C)(OC)[C@@H](O)[C@H](C)O3)[C@@H](C)C(=O)O[C@H](CC)[C@@](C)(O)[C@H](O)[C@@H](C)C(=O)[C@H](C)C[C@@]2(C)O)O[C@H](C)C[C@@H]1N(C)C.CCCCCCCCCCCCOS(=O)(=O)O` [ERYTHROMYCIN ESTOLATE], the Hepatotoxicity entry with Hepatotoxicity [1] is given as “drug-induced liver injury reported”; with Hepatotoxicity [2], “no drug-induced liver injury reported”; with Hepatotoxicity [3], “drug-induced liver injury reported”.
`CCOC(=O)CCC(=O)O[C@H]1[C@H](O[C@@H]2[C@@H](C)[C@H](O[C@H]3C[C@@](C)(OC)[C@@H](O)[C@H](C)O3)[C@@H](C)C(=O)O[C@H](CC)[C@@](C)(O)[C@H](O)[C@@H](C)C(=O)[C@H](C)C[C@@]2(C)O)O[C@H](C)C[C@@H]1N(C)C` [ERYTHROMYCIN ETHYLSUCCINATE]: the Hepatotoxicity result with Hepatotoxicity [1] is “no drug-induced liver injury reported”; in the series on Hepatotoxicity [2], “no drug-induced liver injury reported”; with Hepatotoxicity [3], “drug-induced liver injury reported”.
On to `CC[C@H]1OC(=O)[C@H](C)[C@@H](O[C@H]2C[C@@](C)(OC)[C@@H](O)[C@H](C)O2)[C@H](C)[C@@H](O[C@@H]2O[C@H](C)C[C@H](N(C)C)[C@H]2O)[C@](C)(O)C[C@@H](C)C(=O)[C@H](C)[C@@H](O)[C@]1(C)O.O=C(O)[C@H](O)[C@@H](O)[C@H](O[C@@H]1O[C@H](CO)[C@H](O)[C@H](O)[C@H]1O)[C@H](O)CO` [ERYTHROMYCIN LACTOBIONATE], for which the values for the Hepatotoxicity result in the series with Hepatotoxicity [1], with Hepatotoxicity [2] and with Hepatotoxicity [3] were “no drug-induced liver injury reported”, “no drug-induced liver injury reported” and “drug-induced liver injury reported”, respectively.
In the case of `CCCCCCCCCCCCCCCCCC(=O)O.CC[C@H]1OC(=O)[C@H](C)[C@@H](O[C@H]2C[C@@](C)(OC)[C@@H](O)[C@H](C)O2)[C@H](C)[C@@H](O[C@@H]2O[C@H](C)C[C@H](N(C)C)[C@H]2O)[C@](C)(O)C[C@@H](C)C(=O)[C@H](C)[C@@H](O)[C@]1(C)O` [ERYTHROMYCIN STEARATE], the Hepatotoxicity entry is “no drug-induced liver injury reported” with Hepatotoxicity [1], “no drug-induced liver injury reported” in the series on Hepatotoxicity [2] and “drug-induced liver injury reported” in the series with Hepatotoxicity [3].
With `CC[C@H]1OC(=O)[C@H](C)[C@@H](O[C@H]2C[C@@](C)(OC)[C@@H](O)[C@H](C)O2)[C@H](C)[C@@H](O[C@@H]2O[C@H](C)C[C@H](N(C)C)[C@H]2O)[C@](C)(O)C[C@@H](C)C(=O)[C@H](C)[C@@H](O)[C@]1(C)O` [ERYTHROMYCIN], the Hepatotoxicity entry in the series on Hepatotoxicity [1] is on record as “drug-induced liver injury reported”; in the series on Hepatotoxicity [2], “no drug-induced liver injury reported”; in the series with Hepatotoxicity [3], “drug-induced liver injury reported”.
As for `COc1ccc2nc([S@@+]([O-])Cc3ncc(C)c(OC)c3C)[nH]c2c1` [ESOMEPRAZOLE], the Hepatotoxicity result with Hepatotoxicity [1] was “no drug-induced liver injury reported”; in the series on Hepatotoxicity [2], “no drug-induced liver injury reported”; with Hepatotoxicity [3] it was “drug-induced liver injury reported”.
As to `Clc1ccc2c(c1)C(c1ccccc1)=NCc1nncn1-2` [ESTAZOLAM], the Hepatotoxicity entry was “drug-induced liver injury reported” in the series with Hepatotoxicity [1], “no drug-induced liver injury reported” in the series with Hepatotoxicity [2] and “no drug-induced liver injury reported” with Hepatotoxicity [3].
With `CCCCC(=O)O[C@H]1CC[C@H]2[C@@H]3CCc4cc(O)ccc4[C@H]3CC[C@]12C` [ESTRADIOL VALERATE], the Hepatotoxicity result in the series on Hepatotoxicity [1] is “drug-induced liver injury reported”; in the series on Hepatotoxicity [2], “no drug-induced liver injury reported”; in the series with Hepatotoxicity [3] it was “no drug-induced liver injury reported”.
For `C[C@]12CC[C@@H]3c4ccc(O)cc4CC[C@H]3[C@@H]1CC[C@@H]2O` [ESTRADIOL], the Hepatotoxicity result in the series on Hepatotoxicity [1], in the series on Hepatotoxicity [2] and in the series on Hepatotoxicity [3] was “drug-induced liver injury reported” each time.
